The molecules below were run against T1, cGMP specific PDE (Phosphodiesterase type V) (Bos taurus, UniProt Q28156) (assay: cGMP specific PDE (PDE V) inhibition, "one step" assay). Details: PDE V isolated from bovine aorta; concentration of inhibitor required for 50% inhibition of enzyme activity; read-out: IC₅₀.
T1 construct: The PDE V in enzyme is isolated from bovine aorta; from tissue; host or cells: bovine aorta
Format: biochemical
Description: The affinities of compounds of formula (I) for cGMP specific PDE (Phosphodiesterase type V) may be assessed by determination of their IC₅₀ values (the concentration of inhibitor required for 50% inhibition of enzyme activity). The PDE V in enzyme is isolated from bovine aorta, essentially by the method of Lugnier et al. in Biochem. Pharmacology 35, 1743 (1986) and assays are performed using a "one step" assay adapted from the method of Wells et al in Biochim. Biophys. Acta 384, 430 (1975).
Compounds of the invention were assayed according to the procedure described hereinabove.

IC50, 1 to 10 nM:
CCCOc1ccc(NC(C)=O)cc1-c1nc2c(c(C)nn2C)c(=O)[nH]1 [Example 15, 1,3-Dimethyl-6-(2-propoxy-5-acetamidophenyl)-1,5-dihydropyrazolo[3,4-d]pyrimidin-4-one]
CCCOc1ccc(NC(=O)OCC)cc1-c1nc2c(c(C)nn2C)c(=O)[nH]1 [Example 22, 1,3-Dimethyl-6-(2-propoxy-5-ethoxycarbonylaminophenyl)-1,5-dihydropyrazolo[3,4-d]pyrimidin-4-one]
CCCOc1ccc(-c2csc(C)n2)cc1-c1nc2c(c(C)nn2C)c(=O)[nH]1 [Example 51, 1,3-Dimethyl-6-[2-propoxy-5-(2-methyl-4-thiazolyl)phenyl]-1,5-dihydro-pyrazolo[3,4-d]pyrimidin-4-one]
CCCOc1ccc(NC(=O)c2ccc(F)cc2)cc1-c1nc2c(c(C)nn2C)c(=O)[nH]1 [Example 18, 1,3-Dimethyl-6-[2-propoxy-5-(4-fluorobenzamido)phenyl]-1,5-dihydropyrazolo[3,4-d]pyrimidin-4-one]
CCCOc1ccc(-c2csc(-c3cccnc3)n2)cc1-c1nc2c(c(C)nn2CC)c(=O)[nH]1 [Example 65, 1-Ethyl-3-methyl-6-[2-propoxy-5-(2-(3-pyridyl)-4-thiazolyl)phenyl]-1,5-dihydropyrazolo[3,4-d]pyrimidin-4-one]
CCCOc1ccc(-c2n[nH]c(-c3ccccc3)n2)cc1-c1nc2c(c(C)nn2C)c(=O)[nH]1 [Example 67, 1,3-Dimethyl-6-[2-propoxy-5-(3-phenyl-1,2,4-triazol-5-yl)phenyl]-1,5-dihydropyrazolo[3,4-d] pyrimidin-4-one]
CCCOc1ccc(NC(=O)NCC)cc1-c1nc2c(c(C)nn2C)c(=O)[nH]1 [Example 30, 1,3-Dimethyl-6-(2-propoxy-5-ethylureidophenyl)-1,5-dihydro-pyrazolo[3,4-d]pyrimidin-4-one]
CCCOc1ccc(-c2ccc(C)s2)cc1-c1nc2c(c(C)nn2C)c(=O)[nH]1 [Example 69, 1,3-Dimethyl-6-[2-propoxy-5-(5-methyl-2-thienyl)phenyl]-1,5-dihydropyrazolo[3,4-d]pyrimidin-4-one]
CCCOc1ccc(N)cc1-c1nc2c(c(C)nn2C)c(=O)[nH]1 [Example 7, 1,3-Dimethyl-6-(2-propoxy-5-aminophenyl)-1,5-dihydropyrazolo[3,4-d]pyrimidin-4-one]
CCCOc1ccc(-c2nc(C)cs2)cc1-c1nc2c(c(C)nn2CC)c(=O)[nH]1 [Example 37, 1-Ethyl-3-methyl-6-[2-propoxy-5-(4-methyl-2-thiazolyl)phenyl]-1,5-dihydro-pyrazolo[3,4-d] pyrimidin-4-one]
CCCOc1ccc(NC(=O)C(F)(F)F)cc1-c1nc2c(c(C)nn2C)c(=O)[nH]1 [Example 41, 1,3-Dimethyl-6-(2-propoxy-5-trifluoroacetamidophenyl)-1,5-dihydro-pyrazolo[3,4-d]pyrimidin-4-one]
CCCOc1ccc(-c2csc(C)n2)cc1-c1nc2c(c(C)nn2CC)c(=O)[nH]1 [Example 63, 1-Ethyl-3-methyl-6-[2-propoxy-5-(2-methyl-4-thiazolyl)phenyl]-1,5-dihydropyrazolo[3,4-d]pyrimidin-4-one]
CCCOc1ccc(NC(=O)c2cccs2)cc1-c1nc2c(c(C)nn2C)c(=O)[nH]1 [Example 19, 1,3-Dimethyl-6-[2-propoxy-5-((2-thienyl)carboxamido)phenyl]-1,5-dihydropyrazolo[3,4-d]pyrimidin-4-one]
CCCOc1ccc(NC(=S)NCC)cc1-c1nc2c(c(C)nn2C)c(=O)[nH]1 [Example 31, 1,3-Dimethyl-6-(2-propoxy-5-ethylthioureidophenyl)-1,5-dihydro-pyrazolo[3,4-d]pyrimidin-4-one]
CCCOc1ccc(NS(C)(=O)=O)cc1-c1nc2c(c(C)nn2C)c(=O)[nH]1 [Example 11, 1,3-Dimethyl-6-(2-propoxy-5-methanesulfonamidophenyl)-1,5-dihydropyrazolo[3,4-d]pyrimidin-4-one]
